Patent US20070027118A1 (priority 2005, published 2007)

Columns and labels:
11β-hsd-1 enzyme [1] = biological target: T1, 11β-hsd-1 enzyme (Homo sapiens, UniProt P28845); assay: biochemical
In short: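 Enzyme (5 nM) pre-incubated ≥30 min at RT with inhibitor and 500 μM NADPH in triethanolamine buffer pH 8.0; reaction started with glucose-6-phosphate regenerating system and 200 nM 3H-cortisone, stopped with DMSO after 60 min. Product quantified by radio-HPLC; Kiapp from Morrison tight-binding equation.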

11β-hsd-1 enzyme [2] = biological target: T1, 11β-hsd-1 enzyme; assay: biochemical; conditions: read-out: % Inh @ 0.1 mM; for inhibition at 100 µM: Table 2, inhibitor 0.1 mM as printed
In short: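 Human 11β-HSD-1 (5 nM) pre-incubated ≥30 min with inhibitor and 500 μM NADPH in triethanolamine buffer pH 8.0 with NaCl, n-dodecyl β-D-maltoside and β-ME; reaction started with G6P/G6PDH/MgCl2 regenerating system and 200 nM 3H-cortisone, run 60 min, stopped with DMSO. 3H-cortisol and substrate separated by radio-HPLC; percent inhibition from peak areas.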

T1 sequence (P28845 whole entry, species assumed): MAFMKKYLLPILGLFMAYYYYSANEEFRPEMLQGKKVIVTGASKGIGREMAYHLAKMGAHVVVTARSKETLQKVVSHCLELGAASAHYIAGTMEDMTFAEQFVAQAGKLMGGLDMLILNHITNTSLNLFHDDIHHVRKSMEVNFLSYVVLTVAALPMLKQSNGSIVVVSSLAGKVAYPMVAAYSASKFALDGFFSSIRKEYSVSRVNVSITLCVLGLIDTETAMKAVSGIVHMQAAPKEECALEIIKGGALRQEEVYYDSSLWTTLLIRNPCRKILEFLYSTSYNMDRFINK

Row | Ki (11β-hsd-1 enzyme [1]) [nM] | inhibition (11β-hsd-1 enzyme [2]) [%] | inhibition at 100 µM (11β-hsd-1 enzyme [2]) [%] | Compound
1 | 110 | 76.7 |  | Cc1cccc(NS(=O)(=O)N2CCCN(C(=O)OCc3ccccc3)CC2)n1 [Example 134, benzyl 4-{[(6-methylpyridin-2-yl)amino]sulfonyl}-14-diazepane-1-carboxylate]
2 | 6.5 | 93.7 |  | COc1cccc(N2CCN(S(=O)(=O)Nc3cccc(C)n3)CC2)n1 [Example 136, 4-(6-methoxypyridin-2-yl)-N-(6-methylpyridin-2-yl)piperazine-1-sulfonamide]
3 | 9.9 | 93.8 |  | COc1ccc2oc(N3CCN(S(=O)(=O)Nc4cccc(C)n4)CC3)nc2c1 [Example 137, 4-(5-methoxy-13-benzoxazol-2-yl)-N-(6-methylpyridin-2-yl)piperazine-1-sulfonamide]
4 | 8.4 |  | 100 | Cc1cccc(NS(=O)(=O)N2CCN(c3nc4ccc(Cl)cc4o3)CC2)n1 [Example 138, 4-(6-chloro-13-benzoxazol-2-yl)-N-(6-methylpyridin-2-yl)piperazine-1-sulfonamide]
5 | 88 | 86.5 |  | Cc1cccc(NS(=O)(=O)N2CCCN(c3ncccc3C#N)CC2)n1 [Example 139, 4-(3-cyanopyridin-2-yl)-N-(6-methylpyridin-2-yl)-14-diazepane-1-sulfonamide]
6 | 250 |  | 85.7 | Cc1ccc(N2CCN(S(=O)(=O)Nc3cccc(C)n3)CC2=O)cc1 [Example 140, 4-(4-methylphenyl)-N-(6-methylpyridin-2-yl)-3-oxopiperazine-1-sulfoflamide]
7 | 1 | 100 |  | CCc1cccc(NS(=O)(=O)N2CCN(c3ncc(-c4ccc(OC)cc4)cn3)CC2)n1 [Example 144, N-(6-ethylpyridin-2-yl)-4-[5-(4-methoxyphenyl)pyrimidin-2-yl]piperazine-1-sulfonamide]
8 | 62 | 79.2 |  | CCc1cccc(NS(=O)(=O)N2CCN(c3nc4ncccc4o3)CC2)n1 [Example 145, N-(6-ethylpyridin-2-yl)-4-[13]oxazolo[45-b]pyridin-2-ylpiperazine-1-sulfanamide]
9 | 26 | 83.9 |  | CCc1cccc(NS(=O)(=O)N2CCc3nc(-c4ccccc4)nc(C(=O)NC)c3C2)n1 [Example 148, 6-{[(6-ethylpyridin-2-yl)amino]sulfonyl}-N-methyl-2-phenyl-5678-tetrahydro-pyrido[43-d]pyrimidine-4-carboxamide]
10 | 280 | 78.2 |  | CCc1cccc(NS(=O)(=O)N2CCN(c3nc4nc(C)ccc4o3)CC2)n1 [Example 149, N-(6-ethylpyridin-2-yl)-4-(5-methyl[13]oxazolo[45-b]pyridin-2-yl)piperazine-1-sulfonamide]
11 | 23 | 90.3 |  | CCc1cccc(NS(=O)(=O)N2CCCN(c3nc4cc(Cl)ccc4o3)CC2)n1 [Example 150, 4-(5-chloro-13-benzoxazol-2-yl)-N-(6-ethylpyridin-2-yl)-14-diazepane-1-sulfonamide]
12 | 1 | 100 |  | COc1ccc(-c2cnc(N3CCN(S(=O)(=O)Nc4cccc(C)n4)CC3)nc2)cc1 [Example 151, 4-[5-(4-methoxyphenyl)-pyrimidin-2-yl]-N-(6-methylpyridin-2-yl)piperazine-1-sulfonamide]
13 | 8.2 |  | 100 | Cc1cccc(NS(=O)(=O)N2CCCN(c3nc4cc(Cl)ccc4o3)CC2)n1 [Example 153, 4-(5-chloro-13-benzoxazol-2-yl)-N-(6-methylpyridin-2-yl)-14-diazepane-1-sulfonamide]
14 | 5.1 | 100 |  | O=S(=O)(Nc1ccc2ccccc2n1)N1CCN(c2ncccn2)CC1 [Example 154, 4-pyrimidin-2-yl-N-quinolin-2-ylpiperazine-1-sulfonamide]
15 | 7.1 | 90.6 |  | O=S(=O)(Nc1ccc2ccccc2n1)N1CCCCCCC1 [Example 155, N-quinolin-2-ylazocane-1-sulfonamide]
16 | 17 | 92.9 |  | O=S(=O)(Nc1ccc2ccccc2n1)N1CCN(c2ccccn2)CC1 [Example 156, 4-pyridin-2-yl-N-quinolin-2-ylpiperazine-1-sulfonamide]
17 | 32 |  | 100 | O=S(=O)(Nc1ccc2ccccc2n1)N1CCCCCC1 [Example 157, N-quinolin-2-ylazepane-1-sulfonamide]
18 | 11 | 85.7 |  | CCOC(=O)N1CCN(S(=O)(=O)Nc2ccc3ccccc3n2)CC1 [Example 160, ethyl 4-[(quinolin-2-ylamino)sulfonyl]piperazine-1-carboxylate]
19 | 16 | 91.9 |  | Cc1cccc(N2CCN(S(=O)(=O)Nc3ccc4ccccc4n3)CC2)n1 [Example 161, 4-(6-methylpyridin-2-yl)-N-quinolin-2-ylpiperazine-1-sulfonamide]

Row | Ki (11β-hsd-1 enzyme [1]) [nM] | inhibition (11β-hsd-1 enzyme [2]) [%] | inhibition at 100 µM (11β-hsd-1 enzyme [2]) [%] | Compound
20 | 26 | 92.2 |  | N#Cc1cccnc1N1CCN(S(=O)(=O)Nc2ccc3ccccc3n2)CC1 [Example 162, 4-(3-cyanopyridin-2-yl)-N-quinolin-2-ylpiperazine-1-sulfonamide]
21 | 38 | 81.4 |  | O=C(OCc1ccccc1)N1CCCN(S(=O)(=O)Nc2ccc3ccccc3n2)CC1 [Example 164, benzyl 4-[(quinolin-2-ylamino)sulfonyl]-14-diazepane-1-carboxylate]
22 | 1.4 | 100 |  | COc1cccc(N2CCN(S(=O)(=O)Nc3ccc4ccccc4n3)CC2)n1 [Example 165, 4-(6-methoxypyridin-2-yl)-N-quinolin-2-ylpiperazine-1-sulfonamide]
23 | 16 | 100 |  | COc1ccc2oc(N3CCN(S(=O)(=O)Nc4ccc5ccccc5n4)CC3)nc2c1 [Example 166, 4-(5-methoxy-13-benzoxazol-2-yl)-N-quinolin-2-ylpiperazine-1-sulfonamide]
24 | 68 | 84.6 |  | O=C1CN(S(=O)(=O)Nc2ccc3ccccc3n2)CCN1C1CCCC1 [Example 169, 4-cyclopentyl-3-oxo-N-quinolin-2-ylpiperazine-1-sulfonamide]
25 | 130 |  | 75.5 | O=C1CN(S(=O)(=O)Nc2ccc3ccccc3n2)CCN1Cc1ccc(F)cc1 [Example 173, 4-(4-fluorobenzyl)-3-oxo-N-quinolin-2-ylpiperazine-1-sulfonamide]
26 | 110 | 70.4 |  | O=S(=O)(Nc1ccc2ccccc2n1)N1CCN(c2nc3ncccc3o2)CC1 [Example 176, 4-[13]oxazolo[45-b]pyridin-2-yl-N-quinolin-2-ylpiperazine-1-sulfonamide]
27 | 190 | 73.3 |  | O=C(c1ccc(N2CCN(S(=O)(=O)Nc3ccc4ccccc4n3)CC2)nc1)N1CCOCC1 [Example 178, 4-[5-(morpholin-4-ylcarbonyl)pyridin-2-yl]-N-quinolin-2-ylpiperazine-1-sulfonamide]
28 | 20 | 100 |  | O=S(=O)(Nc1ccc2ccccc2n1)N1CCCN(c2nc3cc(Cl)ccc3o2)CC1 [Example 180, 4-(5-chloro-13-benzoxazol-2-yl)-N-quinolin-2-yl-14-diazepane-1-sulfonamide]
29 | 96 | 83.4 |  | CCc1cccc(NS(=O)(=O)N2CCc3conc3CC2)n1 [Example 181, N-(6-ethylpyridin-2-yl)-4578-tetrahydro-6H-isoxazolo[34-d]azepine-6-sulfonamide]
30 | 11.5 |  | 100 | CCc1cccc(NS(=O)(=O)N2CCN(c3cccc(OC)n3)CC2)n1 [Example 183, N-(6-ethylpyridin-2-yl)-4-(6-methoxypyridin-2-yl)piperazine-1-sulfonamide]
31 | 8.9 |  | 100 | CCc1cccc(NS(=O)(=O)N2CCN(c3nc4ccc(Cl)cc4o3)CC2)n1 [Example 186, 4-(6-chloro-13-benzoxazol-2-yl)-N-(6-ethylpyridin-2-yl)piperazine-1-sulfonamide]
32 | 160 | 68.8 |  | CCc1cccc(NS(=O)(=O)N2CCCN(c3ncccc3C#N)CC2)n1 [Example 187, 4-(3-cyanopyridin-2-yl)-N-(6-ethylpyridin-2-yl)-14-diazepane-1-sulfonamide]
33 | 1 | 100 |  | CCc1cccc(NS(=O)(=O)N2CCc3c(Cl)cccc3C2)n1 [Example 190, 5-chloro-N-(6-ethylpyridin-2-yl)-34-dihydroisoquinoline-2(1H)-sulfonamide]
34 | 120 | 90.5 |  | CCc1cccc(NS(=O)(=O)N2CCN(c3ncccn3)CC2)n1 [Example 191, N-(6-ethylpyridin-2-yl)-4-pyrimidin-2-ylpiperazine-1-sulfonamide]
35 | 7.7 | 92.5 |  | CCc1cccc(NS(=O)(=O)N2CCCCCCC2)n1 [Example 193, N-(6-ethylpyridin-2-yl)azocane-1-sulfonamide]
36 | 37 |  | 81.4 | CCc1cccc(NS(=O)(=O)N2CCN(c3ccccn3)CC2)n1 [Example 194, N-(6-ethylpyridin-2-yl)-4-pyridin-2-ylpiperazine-1-sulfonamide]
37 | 29 | 92.3 |  | CCc1cccc(NS(=O)(=O)N2CCN(c3ncc(C(F)(F)F)cc3Cl)CC2)n1 [Example 195, 4-[3-chloro-5-(trifluoromethyl)pyridin-2-yl]-N-(6-ethylpyridin-2-yl)piperazine-1-sulfonamide]
38 | 20 | 85.8 |  | CCOC(=O)N1CCN(S(=O)(=O)Nc2cccc(CC)n2)CC1 [Example 196, ethyl 4-{[(6-ethylpyridin-2-yl)amino]sulfonyl}piperazine-1-carboxylate]
